Experimental data as given in ChEMBL document CHEMBL4421719, “Modulation of k2p channels” (2016).
Calls of active or inactive are those of the source. No cut-off for these calls is given here.

Experiments:
Format in all cases: cell-based
[1] = system: Potassium channel subfamily K member 2 (Homo sapiens), O95069 [UNDEFINED MUTATION]; assay: Activation of K2P2.1 G137I mutant (unknown origin) expressed in Xenopus oocytes assessed as effect on channel currents at 50 uM at -80 mV holding potential by two-electrode voltage clamp assay
[2] = target: T1, Potassium channel subfamily K member 2 (Homo sapiens) (UniProt O95069); assay: Activation of K2P2.1 (unknown origin) expressed in HEK293T cell membranes in inside-out patch configuration assessed as effect on channel currents by measuring time of half-maximal activation at 20 uM by two-electrode voltage clamp assay relative to control
T1 sequence (whole entry): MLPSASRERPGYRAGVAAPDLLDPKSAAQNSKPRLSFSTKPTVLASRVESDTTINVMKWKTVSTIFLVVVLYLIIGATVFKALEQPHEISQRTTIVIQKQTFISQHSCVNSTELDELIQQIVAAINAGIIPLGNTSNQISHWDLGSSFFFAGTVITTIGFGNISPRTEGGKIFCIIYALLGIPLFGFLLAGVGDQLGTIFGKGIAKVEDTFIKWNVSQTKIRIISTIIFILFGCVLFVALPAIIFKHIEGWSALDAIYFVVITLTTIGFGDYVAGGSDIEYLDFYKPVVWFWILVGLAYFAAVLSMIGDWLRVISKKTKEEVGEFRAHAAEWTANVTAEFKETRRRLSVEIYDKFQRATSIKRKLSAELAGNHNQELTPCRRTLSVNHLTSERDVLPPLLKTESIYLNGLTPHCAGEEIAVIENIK

[3] = target: T1, Potassium channel subfamily K member 2 (Homo sapiens); assay: Activation of K2P2.1 (unknown origin) expressed in HEK293T cell membranes in inside-out patch configuration assessed as effect on channel currents at 20 uM by two-electrode voltage clamp assay relative to control
[4] = target: T1, Potassium channel subfamily K member 2 (Homo sapiens); assay: Activation of K2P2.1 (unknown origin) expressed in HEK293T cells assessed as effect on channel currents at -40 mV holding potential at 100 uM by two-electrode voltage clamp assay relative to control
[5] = Activation of K2P2.1 3G mutant (unknown origin) expressed in Xenopus oocytes assessed as effect on channel currents at -80 mV holding potential by two-electrode voltage clamp assay; details: Homo sapiens
[6] = target: T2, Potassium channel subfamily K member 10 (Homo sapiens) (UniProt P57789); assay: Activation of K2P10.1 (unknown origin) expressed in Xenopus oocytes assessed as effect on channel currents at -80 mV holding potential at 100 uM by two-electrode voltage clamp assay relative to control
T2 sequence (whole entry): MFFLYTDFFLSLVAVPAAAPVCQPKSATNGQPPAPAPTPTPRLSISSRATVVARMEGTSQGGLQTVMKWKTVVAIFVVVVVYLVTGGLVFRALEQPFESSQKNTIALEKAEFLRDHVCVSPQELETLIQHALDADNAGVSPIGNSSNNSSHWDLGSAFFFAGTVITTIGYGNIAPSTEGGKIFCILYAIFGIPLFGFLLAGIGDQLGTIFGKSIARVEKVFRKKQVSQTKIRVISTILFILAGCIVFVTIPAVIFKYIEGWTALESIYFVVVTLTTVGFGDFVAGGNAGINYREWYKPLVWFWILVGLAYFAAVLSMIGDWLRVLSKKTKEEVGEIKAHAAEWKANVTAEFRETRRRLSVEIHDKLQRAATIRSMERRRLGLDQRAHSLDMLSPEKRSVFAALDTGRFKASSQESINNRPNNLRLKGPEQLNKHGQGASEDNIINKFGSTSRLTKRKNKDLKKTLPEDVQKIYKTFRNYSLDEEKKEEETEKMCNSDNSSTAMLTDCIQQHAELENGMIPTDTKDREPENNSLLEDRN

[7] = target: T1, Potassium channel subfamily K member 2 (Homo sapiens); assay: Activation of K2P2.1 (unknown origin) expressed in Xenopus oocytes assessed as effect on channel currents at -80 mV holding by two-electrode voltage clamp assay relative to control
[8] = target: T1, Potassium channel subfamily K member 2 (Homo sapiens); assay: Activation of K2P2.1 (unknown origin) expressed in HEK293T cells assessed as effect on channel currents at -40 mV holding potential by two-electrode voltage clamp assay relative to control
[9] = target: T3, Potassium channel subfamily K member 4 (Homo sapiens) (UniProt Q9NYG8); assay: Activation of K2P4.1 (unknown origin) expressed in Xenopus oocytes assessed as effect on channel currents at -80 mV holding potential at 100 uM by two-electrode voltage clamp assay relative to control
T3 sequence (whole entry): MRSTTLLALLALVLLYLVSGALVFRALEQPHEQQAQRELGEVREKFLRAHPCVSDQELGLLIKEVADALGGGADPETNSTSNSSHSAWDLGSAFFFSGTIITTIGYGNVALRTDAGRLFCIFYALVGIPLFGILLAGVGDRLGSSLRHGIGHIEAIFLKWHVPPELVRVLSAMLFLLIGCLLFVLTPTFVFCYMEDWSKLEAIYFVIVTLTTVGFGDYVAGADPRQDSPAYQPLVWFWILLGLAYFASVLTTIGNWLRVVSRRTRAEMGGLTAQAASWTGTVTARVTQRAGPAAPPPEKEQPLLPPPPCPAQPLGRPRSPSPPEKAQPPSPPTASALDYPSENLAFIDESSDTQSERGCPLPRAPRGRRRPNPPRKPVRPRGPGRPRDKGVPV

[10] = target: T4, Potassium channel subfamily K member 5 (Homo sapiens) (UniProt O95279); assay: Activation of K2P5.1 (unknown origin) expressed in Xenopus oocytes assessed as effect on channel currents at -80 mV holding potential at 100 uM by two-electrode voltage clamp assay relative to control
T4 sequence (whole entry): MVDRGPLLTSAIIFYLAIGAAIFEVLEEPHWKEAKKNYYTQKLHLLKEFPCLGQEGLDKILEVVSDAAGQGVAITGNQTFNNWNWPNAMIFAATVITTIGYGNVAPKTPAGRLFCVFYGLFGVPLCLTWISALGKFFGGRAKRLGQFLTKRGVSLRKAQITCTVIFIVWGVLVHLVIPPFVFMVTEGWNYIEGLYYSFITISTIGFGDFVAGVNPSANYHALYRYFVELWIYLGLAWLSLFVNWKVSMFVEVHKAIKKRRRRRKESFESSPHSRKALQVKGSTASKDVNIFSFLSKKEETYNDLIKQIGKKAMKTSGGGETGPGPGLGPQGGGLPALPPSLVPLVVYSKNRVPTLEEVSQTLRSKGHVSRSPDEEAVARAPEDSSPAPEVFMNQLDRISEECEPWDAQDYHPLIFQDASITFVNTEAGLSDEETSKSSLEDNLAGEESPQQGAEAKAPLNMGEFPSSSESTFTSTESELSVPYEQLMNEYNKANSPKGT

[11] = target: Potassium channel subfamily K member 9 (Homo sapiens) (UniProt Q9NPC2); assay: Activation of K2P9.1 (unknown origin) expressed in Xenopus oocytes assessed as effect on channel currents at -80 mV holding potential at 100 uM by two-electrode voltage clamp assay relative to control
Chain of Potassium channel subfamily K member 9 (Homo sapiens) (Q9NPC2 whole entry): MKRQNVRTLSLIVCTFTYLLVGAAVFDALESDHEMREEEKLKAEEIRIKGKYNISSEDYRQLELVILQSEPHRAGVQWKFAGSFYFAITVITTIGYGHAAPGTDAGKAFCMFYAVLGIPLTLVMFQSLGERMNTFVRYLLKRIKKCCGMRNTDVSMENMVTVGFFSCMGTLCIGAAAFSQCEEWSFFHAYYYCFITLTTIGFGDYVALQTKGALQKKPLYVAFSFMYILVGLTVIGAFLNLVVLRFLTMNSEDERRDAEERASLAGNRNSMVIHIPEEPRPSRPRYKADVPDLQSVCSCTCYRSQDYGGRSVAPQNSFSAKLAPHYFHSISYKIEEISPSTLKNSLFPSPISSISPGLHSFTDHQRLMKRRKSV

[12] = target: T1, Potassium channel subfamily K member 2 (Homo sapiens); assay: Activation of K2P2.1 (unknown origin) expressed in HEK293T cell membranes in inside-out patch configuration assessed as effect on channel currents by measuring time of return to baseline following compound washout at 20 uM by two-electrode voltage clamp assay relative to control

- Activity [1]: inactive
- T1/2 [2]: 10.8 s
- Activity [3]: Active
- Emax [4]: 11.4%
- EC50 [5]: 49.4 µM
- Emax [6]: 11.4%
- Emax [7]: 11.1 to 11.4
- Emax [8]: 11.4
- Emax [9]: 14.7%
- Emax [10]: 1.7%
- Emax [11]: 2%
- T1/2 [12]: 22 s
Structure (SMILES): CC1(C)c2cc(Cl)ccc2N(CCc2nnn[nH]2)c2ccc(Cl)cc21
